# Measured values: patent publication US20220296674A1, “CELL PENETRATING PEPTIDES FOR INTRACELLULAR DELIVERY OF MOLECULES” (INSERM (INSTITUT NATIONAL DE LA SANTÉ ET DE LA RECHERCHE …, priority 2019, published 2022)
# Where no end group is shown, it is not given here.
# Tests used:
# various cell lines [1] = format: cell-based; settings: data not shown
# Protocol: (§1) FIG. 4 Lack of toxicity and immunogenicity of hAP10 and hAP10DR. (A) The indicated cells were exposed to increasing concentrations of hAP10 or hAP10DR for 20 h. Viability was then assessed by an MTT assay. Data are means±s.e.m. (n=3). (B) Necrotic cell death was monitored by lactate dehydrogenase (LDH) release from cells into the culture medium. The obtained values were normalized to those of the maximum LDH released (completely lysed) control. Data are means±s.e.m. (n=3). […] Mice red blood cells were incubated with 30 μM of hAP10 or hAP10DR. Released hemoglobin was detected by densitometry at 540 nm. Hemoglobin release by cells treated with 1% Triton X-100 was used as 100% lysis control. (D) Levels of IL-6 secretion from RAW 264.7 cells exposed to 10 μM of hAP10 or hAP10DR or LPS (1 μg/ml) for 24 h. Data are means±s.e.m. (n=3).
# (§2) Cells survival was assessed with the CellTiter 96® Aqueous One Solution Cell Proliferation Assay kit (Promega, Madison, Wis.). Necrotic plasma membrane permeabilization was assessed by lactate dehydrogenase (LDH) leakage in the culture medium with the CytoTox 96® Non-Radioactive Cytotoxicity Assay kit (Promega, Madison, Wis.).
# Mice red blood cells = assay: Hemolysis assay; format: cell-based; settings: 30 μM, 37° C., 1 h; 1% Triton X-100 = 100% lysis
# Protocol: as §1
# Mice blood was centrifuged at 2000 rpm for 10 min. Red blood cell pellets were washed five times with PBS and resuspended in normal saline. For each assay, 1×10^7 red blood cells were incubated with or without peptide (30 μM) in normal saline at 37° C. for 1 h. The samples were then centrifuged and the absorbance of the supernatant was measured at 540 nm. To determine the percentage of lysis, absorbance readings were normalized to lysis with 1% Triton X-100.
# [2] = tested on: non-malignant (CD3+CD4+TCR-Vβ−) CD4+ T-cells; format: cell-based, human
# Protocol: (§3) FIG. 7 RT33 and RT33DR specifically induce primary Sézary cells death. Sézary patients' PBMC were incubated with increasing concentrations of the indicated peptides for 4 h at 37° C. Cells were then analyzed by flow cytometry following labeling with anti-TCRVβ-FITC, -CD4-PE, -CD3-PE-Cy7 mAbs and 7-AAD. Data are shown as the means±s.e.m. of the percentage of 7-AAD+apoptotic cells within the following populations: malignant (CD3^+CD4^+TCR-V β^+) and non-malignant (CD3^+CD4^+TCR-Vβ^−) CD4+T-cells and non T-cells (CD3^−), derived from three different patients.
# (§4) PBMC exposed or not to RT33 or RT33DR were processed for flow cytometry to assess cell death. Cells were labelled with a mix of anti-TCR-Vβ-FITC, -CD3-PE and -CD4-PECy7 mAbs (Beckman Coulter). Detection of apoptotic cells was performed using 7AAD (BD Biosciences). Cells were analyzed on a CytoFlex cytometer (Beckman Coulter) and data treated with FlowJo software.
# non T-cells (CD3−) = format: cell-based, human
# Protocol: as §3, §4
# various cell lines [3] = assay: Lactate dehydrogenase (LDH) release assay of the shuttle peptides; format: cell-based
# Protocol: as §1, §2
# [4] = tested on: RAW 264.7 murine macrophages; assay: Immunogenicity assay: IL-6 secretion (ELISA); format: cell-based; settings: 10 μM peptide or LPS 1 μg/ml, 24 h
# Protocol: as §1
# RAW 264.7 murine macrophages were seeded (1×10^4 cells/cm^2) in a 24-well plate and allowed to grow for 24 h. Then, cells were left untreated or exposed to the hAP10 or hAP10DR peptides (10 μM) or to LPS (E. Coli O111:b4, 1 μg/ml) as a positive control for 24 h. Levels of IL-6 in the supernatants were analyzed using an Mouse IL-6 Quantikine ELISA Kit (R&D system).
# [5] = tested on: HUT78 Sézary cell line xenograft tumors; assay: Xenograft tumor model of Sézary syndrome; format: in vivo; settings: systemic administration, single agent
# Protocol: FIG. 8 RT33 and RT33DR inhibit tumor growth in vivo in a mouse model for the Sézary syndrome. (A) Mice were engrafted subcutaneously with HUT78 Sézary cell line. Animals with preexisting tumors were treated daily with i.p. injections of RT33 or RT33DRM in normal saline (5 mg/kg) or normal saline as control. Tumors were calipered throughout the study and data were plotted as means±s.e.m. (n=7 mice per group). p<0.005 relative to control. Subsequently, tumors were excised, stripped of non-tumor tissue and tumors volumes were calculated. (B) Representative pictures of H&E staining of tumors treated with RT33, RT33DRM, or normal saline. The scale bar represents 500 μm.
# Animal experiments were approved by The University Board Ethics Committee for Experimental Animal Studies (#2303.01). Xenograft tumors were obtained by subcutaneous injection of 10^6 HUT78 cells in the right flank of 8-week-old female NOD-SCID-gamma (NSG) mice, bred and housed under pathogen-free conditions at our animal facility (IUH, Saint Louis Hospital, Paris, France). Treatment started after randomization when tumors were visible and consisted of daily intraperitoneal (i.p.) injection of normal saline or RT33 or RT33DR in normal saline (n=5 per group). Tumor volume was measured every other day and calculated as: long axis X short axis^2 ×0.5. […]
# HUT78 = assay: Cell viability (MTT) after RT33 / RT33DR; format: cell-based; settings: 50 μM zVAD-fmk, 20 h
# Protocol: (§5) FIG. 6 RT33 and RT33DR induces cancer cells, but not normal cells, death. (A) Amino-acid sequence of RT33 and RT3DR. hAP10 and hAP10DR sequences are in bold. (B) The indicated cells were exposed to increasing concentrations of RT33 or RT3DR for 20 h. Viability was then assessed by an MTT assay. Data are means±s.e.m. (n=3). (C) HUT78 cells were exposed to increasing concentrations of RT33 or RT3DR for 20 h in the presence and absence of 50 μM zVAD-fmk or 50 μM Necrostatin-1 (Nec-1). Viability was then assessed by an MTT assay. Data are means±s.e.m. (n=3). (D) HUT78 cells were exposed to 20 μM of RT33 or RT33DR for 3 h. Necrotic cell death was monitored by lactate dehydrogenase (LDH) as in FIG. 4 (B). Data are means±s.e.m. (n=3). (E) Ultrastructural analysis of HUT78 cells treated with 15 μM of hAP10 or hAP10DR for 1 h. (F) Structural prediction of RT33 and RT33DR. The segments corresponding to the hAP10 and hAP10DR moieties are in light grey. (G) Cancerous C8161 cells or non-cancerous MRC-5 cells were exposed to FITC-labelled RT33 or RT33DR for 1 h. Cels were then examined by fluorescence microscopy.
# as §2
# HaCat = assay: Cell viability (MTT) after RT33 / RT33DR; format: cell-based; settings: increasing concentrations, 20 h
# Protocol: as §5, §2
# MRC-5 = assay: Cell viability (MTT) after RT33 / RT33DR; format: cell-based; settings: increasing concentrations, 20 h
# Protocol: as §5, §2
# U2OS cells = assay: Live cell fluorescence microscopy of FITC-labelled peptides; format: cell-based; settings: 5 μM FITC-labelled peptide, 1 h
# Protocol: FIG. 2 Cellular uptake of hAP10 and hAP10DR. (A) HUT78 cells were incubated with 5 μM of FITC-labelled hAP10 and hAP10DR or penetratin and TAT as controls for 1 h in complete medium. Cells were then washed with PBS, incubated in trypsin-EDTA solution (0.01% trypsin) at 37° C. for 10 min, resuspended in PBS and subjected to flow cytometry (right). Left: Bar diagram representing the uptake of the FITC-labelled peptides as mean cellular fluorescence from the flow cytometry analysis of live cells positive for FITC. Data are means±s.e.m. (n=3). (B) Fluorescence quantification of FITC-labelled hAP10 and hAP10DR uptaken in human B lymphocytes. Cells were incubated with 5 μM of FITC-labelled hAP10 and hAP10DR or penetratin and TAT as controls for 1 h in complete medium, washed with PBS and the fluorescence of the cell lysis measured as described in Material and Methods. Data are means±s.e.m. (n=3). (C) Intracellular distribution of FITC-labelled hAP10 and hAP10DR in U2OS cells. U2OS cells grown on coverslips were incubated with 5 μM of FITC-labelled hAP10 and hAP10DR or penetratin and TAT as controls for 1 h in complete medium, washed trice with PBS and live cells were imaged using fluorescence microscopy. […] Following incubation, the cells were washed three times in PBS and imaged using a Zeiss Axiovert 200 M inverted fluorescence microscope.
substance,measurement,setting,value
"AAC-11 specific portion: the AAC-11 specific portion (residues 377-399) alone, without shuttle (LQYFARGLQVYIRQLRLALQGKT; UniProt Q9BZZ5 377-399, looked up, fragment)","cell viability, AAC-11 portion without shuttle",various cell lines [1],nor the AAC-11 specific portion alone (not shown) decreased cell viability
"RSRSRDRRRK [hAP10, RSRSRDRRRK]",hemolytic activity,Mice red blood cells,neither hAP10 nor hAP10DR exhibited hemolytic activity
same,cell viability / cell death of non-tumoral CD4+ T-cells,[2],did not induce cell death
same,cell viability / cell death of non-T cell population,non T-cells (CD3−),did not induce cell death
same,LDH activity release in the culture medium (membrane disturbance),various cell lines [3],did not induce membrane disturbance
same,secreted IL-6,[4],no significant IL-6 release was detected
RSRSRDRRRKLQYFARGLQVYIRQLRLALQGKT [RT33],tolerability in vivo,[5],well tolerated in vivo
same,cell viability / cell death of non-tumoral CD4+ T-cells,[2],neither peptide decreased cell viability
same,cell viability / cell death of non-T cell population,non T-cells (CD3−),neither peptide decreased cell viability
same,cytotoxicity in presence of pan-caspase inhibitor zVAD-fmk,HUT78,did not block
same,cell viability of normal cells,HaCat,sparing the normal cells tested
same,cell viability of normal cells,MRC-5,sparing the normal cells tested
"RSRSRRRRRK [hAP10DR, RSRSRRRRRK]",hemolytic activity,Mice red blood cells,neither hAP10 nor hAP10DR exhibited hemolytic activity
same,cell viability / cell death of non-tumoral CD4+ T-cells,[2],did not induce cell death
same,cell viability / cell death of non-T cell population,non T-cells (CD3−),did not induce cell death
same,LDH activity release in the culture medium (membrane disturbance),various cell lines [3],did not induce membrane disturbance
same,secreted IL-6,[4],no significant IL-6 release was detected
RSRSRRRRRKLQYFARGLQVYIRQLRLALQGKT [RT33DR],tolerability in vivo,[5],well tolerated in vivo
same,cell viability / cell death of non-tumoral CD4+ T-cells,[2],neither peptide decreased cell viability
same,cell viability / cell death of non-T cell population,non T-cells (CD3−),neither peptide decreased cell viability
same,cytotoxicity in presence of pan-caspase inhibitor zVAD-fmk,HUT78,did not block
same,cell viability of normal cells,HaCat,sparing the normal cells tested
same,cell viability of normal cells,MRC-5,sparing the normal cells tested
TAT,cellular distribution of fluorescence,U2OS cells,both a diffuse and punctuate fluorescence distribution
"lipopolysaccharide [LPS, reference compound]",secreted IL-6,[4],elicited a potent cytokine response
